# Data taken from ChEMBL document CHEMBL3351843, “Noncovalent fluorescent probes of human immuno- and constitutive proteasomes” (J Med Chem, 2014).
# pIC50: −log10 of the molar value. Active and inactive are the calls of the source. The rule behind the calls is not given here.
# Key:
# Proteasome [1] = assay: Inhibition of trypsin-like activity of proteasome in HEK293 cells incubated for 1 hr by proteasome Glo cell-based chemiluminescent assay; conditions: Homo sapiens, HEK293, 1 h
# [2] = Inhibition of chymotrypsin-like activity of human inducible 20S immunoproteasome incubated for 15 mins before fluorogenic substrate addition
# [3] = Drug uptake in nucleus of HEK293 cells at 5 uM incubated for 1 hr by DAPI staining based confocal microscopy; assay type: ADME, cell-based; conditions: human, hek293, 1 h
# HEK293 [4] = assay: Drug uptake in HEK293 cells at 5 uM incubated for 1 hr by flow cytometry; assay type: ADME, cell-based; conditions: human, hek293, 1 h
# Proteasome [5] = assay: Inhibition of PA activity of proteasome in HEK293 cells incubated for 1 hr by proteasome Glo cell-based chemiluminescent assay; conditions: Homo sapiens, HEK293, 1 h
# [6] = Inhibition of trypsin-like activity of human inducible 20S immunoproteasome incubated for 15 mins before fluorogenic substrate addition
# [7] = Inhibition of chymotrypsin-like activity of human constitutive 20S proteasome incubated for 15 mins before fluorogenic substrate addition
# [8] = Inhibition of trypsin-like activity of human constitutive 20S proteasome incubated for 15 mins before fluorogenic substrate addition
# [9] = Inhibition of PA activity of human inducible 20S immunoproteasome incubated for 15 mins before fluorogenic substrate addition
# Proteasome [10] = assay: Inhibition of chymotrypsin-like activity of proteasome in HEK293 cells incubated for 1 hr by proteasome Glo cell-based chemiluminescent assay; conditions: Homo sapiens, HEK293, 1 h
# [11] = Cytotoxicity against HEK293 cells assessed as cell survival at 5 uM incubated for 1 hr by XTT assay; assay type: cell-based; conditions: human, read-out: Survival
# [12] = Inhibition of PA activity of human constitutive 20S proteasome incubated for 15 mins before fluorogenic substrate addition
# Proteasome [13] = assay: Reversible inhibition of PA activity of proteasome in HEK293 cells incubated for 1 hr by proteasome Glo cell-based chemiluminescent assay; conditions: Homo sapiens
# HEK293 [14] = assay: Reversible inhibition of chymotrypsin-like activity of proteasome in HEK293 cells incubated for 1 hr by proteasome Glo cell-based chemiluminescent assay; conditions: Homo sapiens
# Proteasome [15] = assay: Reversible inhibition of trypsin-like activity of proteasome in HEK293 cells incubated for 1 hr by proteasome Glo cell-based chemiluminescent assay; conditions: Homo sapiens
SMILES,pIC50 (Proteasome [1]),pIC50 [2],Drug uptake [3],Drug uptake (HEK293 [4]),pIC50 (Proteasome [5]),pIC50 [6],pIC50 [7],pIC50 [8],pIC50 [9],pIC50 (Proteasome [10]),"viability at 1 h, 5 µM [11] [%]",pIC50 [12],inhibition (Proteasome [13]),inhibition (HEK293 [14]),inhibition (Proteasome [15])
C[C@H](NC(=O)[C@H](Cc1ccc(OCc2ccccc2)cc1)NC(=O)c1ccc(-c2c3ccc(=[N+](C)C)cc-3oc3cc(N(C)C)ccc23)c(C(=O)[O-])c1)C(=O)N[C@@H](C[C@]1(O)C(=O)Nc2ccccc21)C(=O)NCc1ccccc1,5.61,6.38,Active,Active,5.95,5.45,6.37,5.79,6.08,6.54,90.1,5.97,,,
C[C@H](NC(=O)[C@H](Cc1ccc(OCc2ccccc2)cc1)NC(=O)CCCCCNC(=O)c1ccc(-c2c3ccc(=[N+](C)C)cc-3oc3cc(N(C)C)ccc23)c(C(=O)[O-])c1)C(=O)N[C@@H](C[C@]1(O)C(=O)Nc2ccccc21)C(=O)NCc1ccccc1,6.28,6.25,Active,,6.40,5.76,6.32,5.91,6.19,7.19,78.2,6.00,Active,Active,Active
C[C@H](NC(=O)[C@H](Cc1ccc(OCc2ccccc2)cc1)NC(=O)c1ccc(-c2c3ccc(=O)cc-3oc3cc(O)ccc23)c(C(=O)O)c1)C(=O)N[C@@H](C[C@]1(O)C(=O)Nc2ccccc21)C(=O)NCc1ccccc1,,5.83,,,,5.61,5.59,5.71,5.15,,,5.02,,,
C[C@H](NC(=O)[C@H](Cc1ccc(OCc2ccccc2)cc1)NC(=O)OC(C)(C)C)C(=O)N[C@@H](C[C@]1(O)C(=O)Nc2ccccc21)C(=O)NCc1ccccc1,,5.60,,,,4.56,5.49,5.15,5.21,,,4.94,,,
C[C@H](NC(=O)[C@H](Cc1ccc(OCc2ccccc2)cc1)NC(=O)CCCCCNC(=O)CCCCCNC(=O)CCCCCNC(=O)c1ccc(-c2c3ccc(=[N+](C)C)cc-3oc3cc(N(C)C)ccc23)c(C(=O)[O-])c1)C(=O)N[C@@H](C[C@]1(O)C(=O)Nc2ccccc21)C(=O)NCc1ccccc1,6.29,6.17,Active,,6.22,5.76,6.31,5.89,6.13,6.90,100,5.86,,,
COC(=O)CCCCCNC(=O)c1ccc(-c2c3ccc(=[N+](C)C)cc-3oc3cc(N(C)C)ccc23)c(C(=O)[O-])c1,,,,Active,,,,,,,67.6,,,,
